21 compounds from patent US7521540B2, “CYR61 compositions and methods” (Munin Corporation, priority 1996, dated 2009) can be followed below.

In assay [1] the test system is 1064SK primary human foreskin fibroblasts. The assay can be described thus: Fibroblast adhesion assay (methylene blue, A620). The format is cell-based. To be noted: for 1064SK adhesion to Cyr61-coated wells with agent: Cyr61 2 μg/ml, agent at the level stated in the block, Mg2+ 5.0 mM after EDTA; for 1064SK adhesion to Type I collagen-coated wells with agent: Type I collagen 2 μg/ml; for 1064SK adhesion to vitronectin-coated wells with agent: vitronectin 0.5 μg/ml; for concentration that inhibited cell adhesion to Cyr61: in cell suspension. How it is done: The ability of Cyr61 to mediate cell adhesion in normal fibroblasts was investigated. Microtiter wells were coated with purified recombinant Cyr61 protein, and 1064SK primary human foreskin fibroblasts were allowed to adhere under serum-free conditions. […] 50 μl cell suspensions were plated on microtiter wells coated with varying concentrations (0.5-5.0 μg/ml) of Cyr61 protein. After incubation at 37° C. for 30 minutes, adherent cells were fixed and stained with methylene blue.
In another experiment, microtiter wells were coated with either BSA, Cyr61 (2 μg/ml), or vitronectin (VN; 0.5 μg/ml) and blocked with affinity-purified anti-Cyr61 antibodies for one hour at 37° C. before 1064SK cells were plated.
The effects of divalent cations in cell adhesion to Cyr61 was also investigated. […] Data are means from triplicate determinations. […] Inhibition by Ca^2+ is characteristic of adhesion through some members of the β1 family of integrins, including receptors that bind type I collagen, laminin, and vitronectin (integrins α2β1, α6β1, and αVβ1) in fibroblasts, as well as the lymphocyte-specific integrin αLβ2.
The effects of RGD peptides on Cyr61-mediated fibroblast binding was tested by plating cells in wells coated with Cyr61 (2 μg/ml). Type I collagen (2 μg/ml) or vitronectin (0.5 μg/ml), 2 mM GRGDSP or GRGESP peptide was then added.
Cells were also pre-incubated with 40 μg/ml monoclonal antibodies against the integrin α5 or the integrin αV subunits at room temperature for 30 minutes, then plated on wells coated with Cyr61 (2 μg/ml), vitronectin (0.5 μg/ml) or fibronectin (FN, 1 μg/ml). […] The data are means, representative of three experiments.
The 1064 SK cells were also analyzed using the monoclonal antibody JBIA, which binds the β1 integrin subunit. Cells were pre-incubated with the antibody (50 μg/ml) before plating on microtiter wells coated with Cyr61 (2 μg/ml), Type I collagen (2 μg/ml), or vitronectin (0.5 μg/ml). […] Data are means, representative of three experiments.
To identify the specific β1 integrin that mediates fibroblast adhesion to Cyr61, the inhibitory effects of function-blocking monoclonal antibodies were tested against various integrin α subunits. […] The data are means, representative of at least three experiments.

The subject of another assay is HUVE cells. Kind of assay: HUVE cell attachment to murine Cyr61-coated plates. The format is cell-based, human. The conditions noted are these: Cyr61-coated surfaces. How it is done:
Another embodiment of the invention is directed to the use of Cyr61 to mediate cellular attachment to the extracellular matrix. Induction of cellular adhesion was investigated using murine Cyr61, fibronectin, and bovine serum albumin (BSA). Immunological 96-well plates (Falcon brand) were coated with 50 μl of 0.1% BSA in PBS at 4° C. in the presence of 0-30 μg/ml concentrations of murine Cyr61 or fibronectin. After two hours exposure to the coating solution, non-diluted immune or pre-immune antisera (30 μl/well), or affinity-purified anti-Cyr61 antibodies were added. For some wells, the coating mixture was adjusted to 10 mM DTT or 100 mM HCl. After 16 hours incubation, the coating solution was removed and the well surface was blocked with 1% BSA in phosphate-buffered saline (PBS) for 1 hour at room temperature. HUVE cells were plated in Ham's complete F12K medium [GIBCO-BRL, Inc.; Ham, Proc. Natl. Acacd. Sci. (USA) 53:786 (1965)] at 5×10^3-10^4 cells/well. Cycloheximide was added to 100 μg/ml immediately before plating and monensin was added to 1 μM 14 hours before plating. After a 2-hour incubation at 37° C., the wells were washed with PBS and attached cells were fixed and stained with methylene blue. The attachment efficiency was determined by quantitative dye extraction and measurement of the extract absorbance at 650 nm. Oliver et al., J. Cell. Sci. 92:513-518 (1989).

Another assay concerns platelets. Kind of assay: Platelet adhesion assay. The format is cell-based, human. The method, then:
Microtiter wells were coated with purified recombinant Fisp12/mCTGF or Cyr61, and the adhesion of isolated platelets to these proteins was detected with ^125I-mAb15, an anti-β3 monoclonal antibody (Frelinger et al., J. Biol. Chem 265:6346-6352 [1990]). Platelets were obtained from venous blood drawn from healthy donors and collected into acid-citrate-dextrose (ACD). Washed platelets were prepared by diffenential centrifugation as described (Kinlough-Rathbone et al. Thromb. Haemostas 2:291-308 [1997]), and finally resuspended in HEPES-Tyrode's buffer (5 mM HEPES, pH 7.35, 1 mM MgCl2, 1 mM CaCl2, 135 mM NaCl, 2.7 mM KCl, 11.9 mM NaHCO3, 1 mg/ml dextrose and 3.5 mg/ml BSA). The platelet concentration was adjusted to […].
Microtiter wells (Immulon 2 removawell strips, Dynex Technologies, Inc.) were coated with Cyr61, Fisp12/mCTGF, or fibrinogen (25 μg/ml, 50 μl/well) incubated overnight at 22° C., and then blocked with 3% BSA at 37° C. for 2 hours. Washed platelets were added to the wells (100 μl/well) in the presence and absence of platelet agonists and incubated at 37° C. for 30 minutes. The wells were washed with HEPES-Tyrode's buffer and adherent platelets were detected with ^125I-mAb15, an anti-β3 monoclonal antibody. Exposure to the labeled antibody ([…], 50 μl/well) proceeded for 1 hour at 22° C. After extensive washing with HEPES-Tyrode's buffer, bound radioactivity was determined by γ-counting. In inhibition studies, washed platelets were pre-incubated with blocking peptides or antibodies at 37° C. for 15 minutes prior to addition to microtiter wells.
The anti-β3 antibody was radioiodinated with carrier-free Na^125I (Amersham Corp.) using the IODO-BEADS iodination reagent (Pierce) to a specific activity of approximately 2 μCi/μg. […] As controls, BSA- and fibrinogen-coated (KabiVitrum Inc.) wells were also used. Initially, the adhesion of unactivated versus activated platelets to immobilized Fisp12/mCTGF and Cyr61 was compared. To ensure that plateltes were not activated during the washing procedures, PGl2 (100 nM), which inhibits activation by raising platelet cAMP levels, was added to the platelet suspensions. […]

In assay [2] the test system is Human Microvascular Endothelial Cells. The assay can be described thus: In vitro migration assay for angiogenesis inhibitors. To be noted: for migrating cells per set of three high-powered fields, Cyr61 plus compound: Cyr61 1 μg/ml plus 10 mM compound. Format: cell-based. How it is done:
As in the preceding Example, human microvascular endothelial cells (Clonetics) were used. In one series of assays, several carbohydrates and carbohydrate derivatives were analyzed. These compounds included 10 mM mannose, 10 mM mannose-6-phosphate, and 10 mM galactose. […] Cyr61 plus galactose induced the migration of approximately 74 cells per set of three high-powered fields. […] The angiogenic activity of basic FGF (10 ng/ml) was also tested, as described above, with and without mannose-6-phosphate. In the presence of 10 mM mannose-6-phosphate, bFGF induced 51 cells per set of three high-powered fields to migrate; in its absence, bFGF induced the migration of approximately 52 cells. […] The effect of mannose-6-phosphate on IGF II activity was anticipated because mannose-6-phosphate is known to compete with IGF II for their common receptor (the IGF II receptor). […] Moreover, because there is an essentially perfect correlation between the in vitro migration assay and the in vivo angiogenesis assay, described below, mannose-6-phosphate has been identified as an inhibitor of angiogenesis based on the results of the assay disclosed herein. Accordingly, the invention contemplates a method of inhibiting angiogenesis comprising the step of administering an inhibitor the angiogenic activity of Cyr61 such as mannose-6-phosphate. Assays such as that described above may also be used to screen for other inhibitors of angiogenesis which may be useful in the treatment of diseases associated with angiogenesis such as cancer, and diseases of the eye which are accompanied by neovascularization.

Consider `[Ca+2]` [Ca^2+], for which, in assay [1], the “effect of agent on fibroblast adhesion to Cyr61” value is reported as “abolished cell adhesion to Cyr61 competely”.
Regarding `O=C(O)CN(CCOCCOCCN(CC(=O)O)CC(=O)O)CC(=O)O` [EGTA], the “effect of agent on HUVE cell adhesion to Cyr61” value in the assay with HUVE cells was “completely abolished”.
In the case of `O=S(=O)([O-])[O-].[Mg+2]` [MgSO4, magnesium sulfate], the “effect of agent on fibroblast adhesion to Cyr61” value in assay [1] is listed as “resuced”.
With `[Mg+2]` [Mg^2+], in assay [1], the “effect of agent on fibroblast adhesion to Cyr61” value is listed as “had no effect”, the “1064SK adhesion to Cyr61-coated wells with agent” value was 0.50 A620, the “1064SK adhesion to Type I collagen-coated wells with agent” value is 0.58 A620 and the “1064SK adhesion to vitronectin-coated wells with agent” value was 0.55 A620.
As for `[Mn+2]` [Mn^2+], the “effect of agent on fibroblast adhesion to Cyr61” value in assay [1] is on record as “had no effect”.
In the case of `CCCCC[C@H](O)/C=C/[C@@H]1[C@H]2C/C(=C/CCCC(=O)O)O[C@H]2C[C@H]1O` [PGl2], the “effect of agent on activated platelet adhesion to Cyr61 and Fisp12/mCTGF” value with platelets is “significantly inhibited”.
As to `C[C@@H]1C[C@@H]([C@H](O)CC2CC(=O)NC(=O)C2)C(=O)[C@@H](C)C1` [cycloheximide], in the assay on HUVE cells, the “effect of agent on HUVE cell adhesion to Cyr61” value is listed as “insensitive”.
`O=C[C@H](O)[C@@H](O)[C@@H](O)[C@H](O)CO` [galactose]: the “migrating cells per set of three high-powered fields, Cyr61 plus compound” value in assay [2] is recorded as “approximately 74 cells”.
Regarding `O=C[C@@H](O)[C@@H](O)[C@H](O)[C@H](O)COP(=O)(O)O` [mannose-6-phosphate], in assay [2], the “migrating cells induced by Cyr61 in presence of compound” value is reported as “approximately 12 cells”; the “migrating cells induced by IGF-II in presence of compound” value is roughly 11 cells; the “migrating cells per set of three high-powered fields, Cyr61 plus compound” value is recorded as “approximately 2 cells”. The “migrating cells induced by bFGF in presence of compound” value in assay [2] (bFGF 10 ng/ml, 10 mM compound) came out at 51 cells.
As to `CC[C@@]1([C@@H]2O[C@@H]([C@H]3O[C@@](O)(CO)[C@H](C)C[C@@H]3C)C[C@@H]2C)CC[C@H]([C@]2(C)CC[C@]3(C[C@H](O)[C@@H](C)[C@@H]([C@@H](C)[C@@H](OC)[C@H](C)C(=O)O)O3)O2)O1` [monensin], the “effect of agent on HUVE cell adhesion to Cyr61” value in the assay on HUVE cells was “insensitive”.
With `[Na+].[O-][Cl+2]([O-])[O-]` [sodium chlorate], the “inhibition of cell adhesion to other substrates” value in assay [1] (40 mM, fibronectin, type I collagen, vitronectin, laminin) is on record as 10-20%. For the same compound, in assay [1] (sodium chlorate 40 mM), the “inhibition of cell adhesion to Cyr61” value is recorded as 90%.
For the compound Chondroitin sulfate A [chondroitin A], the “concentration that inhibited cell adhesion to Cyr61” value in assay [1] was determined as 1000 µg/mL.
Regarding “Chondroitin sulfate B (Dermatan sulfate) [chondroitin B]”, in assay [1], the “concentration that inhibited cell adhesion to Cyr61” value was 10 µg/mL.
Turning to Chondroitin sulfate C [chondroitin C], the “inhibition of adhesion to Cyr61” value in assay [1] (0.01-1000 μg/ml) is listed as “failed to inhibit adhesion to Cyr61 at all concentrations tested”.
For the compound GRGDSP, in assay [1], the “1064SK adhesion to Cyr61-coated wells with agent” value was roughly 0.48 A620, the “1064SK adhesion to Type I collagen-coated wells with agent” value is 0.47 A620 and the “1064SK adhesion to vitronectin-coated wells with agent” value was 0.05 A620. Moreover, the “effect of agent on activated platelet adhesion to Cyr61 and Fisp12/mCTGF” value with platelets is given as “specifically inhibited”.
For GRGESP, in assay [1], the “1064SK adhesion to Cyr61-coated wells with agent” value is given as roughly 0.46 A620, the “1064SK adhesion to Type I collagen-coated wells with agent” value is 0.49 A620 and the “1064SK adhesion to vitronectin-coated wells with agent” value is given as 0.41 A620.
As for IGF-II: Insulin Growth Factor II, the “migrating cells, chemoattractant without mannose-6-phosphate” value in assay [2] (bFGF 10 ng/ml, Cyr61, IGF-II) is reported as roughly 47 cells.
Regarding RGES [reference compound], the “effect of agent on adhesion of ADP-activated platelets to fibrinogen” value in the assay with platelets is recorded as “not by RGES or LM609”.
Regarding chondroitinase A, B, C, in assay [1], the “1064SK adhesion to Cyr61-coated wells with agent” value came out at 0.57 A620 and the “1064SK adhesion to vitronectin-coated wells with agent” value came to 0.69 A620. Further, the “1064SK adhesion to fibronectin-coated wells with agent” value in assay [1] (fibronectin 1 μg/ml) is 0.65 A620.
Turning to heparan sulfate, in assay [1], the “concentration that inhibited cell adhesion to Cyr61” value is 0.1 µg/mL.
For laminin, in assay [1] (Cyr61 2, VN 0.5, Type I collagen 2, fibronectin 1, laminin 5 μg/ml), the “1064SK adhesion to coated protein, nothing added” value is reported as 0.62 A620.
